Test results: patent US7205305B2, “Inhibitors of p38” (Vertex Pharmaceuticals Incorporated, priority 1996, dated 2007)

Experiments:
[1] = test system: IL-1 production in LPS-stimulated PBMCs; assay: Inhibition of IL-1 production in LPS-stimulated PBMCs ("cell"); format: cell-based, human; settings: Homo sapiens, PBMC
Method: (§1) Inhibitors were serially diluted in DMSO from a 20 mM stock. At least 6 serial dilutions were prepared. Then 4× inhibitor stocks were prepared by adding 4 μl of an inhibitor dilution to 1 ml of RPMI1640 medium/10% fetal bovine serum. The 4× inhibitor stocks contained inhibitor at concentrations of 80 μM, 32 μM, 12.8 μM, 5.12 μM, 2.048 μM, 0.819 μM, 0.328 μM, 0.131 μM, 0.052 μM, 0.021 μM etc. The 4× inhibitor stocks were pre-warmed at 37° C. until use.
(§2) Fresh human blood buffy cells were separated from other cells in a Vacutainer CPT from Becton & Dickinson (containing 4 ml blood and enough DPBS without Mg^2+/Ca^2+ to fill the tube) by centrifugation at 1500×g for 15 min. Peripheral blood mononuclear cells (PBMCs), located on top of the gradient in the Vacutainer, were removed and washed twice with RPMI1640 medium/10% fetal bovine serum. PBMCs were collected by centrifugation at 500×g for 10 min. The total cell number was determined using a Neubauer Cell Chamber and the cells were adjusted to a concentration of 4.8×10^6 cells/ml in cell culture medium (RPMI1640 supplemented with 10% fetal bovine serum).
(§3) We placed 100 μl of cell suspension or whole blood in each well of a 96-well cell culture plate. Then we added 50 μl of the 4× inhibitor stock to the cells. Finally, we added 50 μl of a lipopolysaccharide (LPS) working stock solution (16 ng/ml in cell culture medium) to give a final concentration of 4 ng/ml LPS in the assay. The total assay volume of the vehicle control was also adjusted to 200 μl by adding 50 μl cell culture medium. The PBMC cells or whole blood were then incubated overnight (for 12–15 hours) at 37° C./5% CO2 in a humidified atmosphere.
(§4) The next day the cells were mixed on a shaker for 3–5 minutes before centrifugation at 500×g for 5 minutes. Cell culture supernatants were harvested and analyzed by ELISA for levels of IL-1b (R & D Systems, Quantikine kits, #DBL50), TNF-α (BioSource, #KHC3012), IL-6 (Endogen, #EH2-IL6) and IL-8 (Endogen, #EH2-IL8) according to the instructions of the manufacturer. The ELISA data were used to generate dose-response curves from which IC50 values were derived.

[2] = test system: TNF production in LPS-stimulated PBMCs; assay: Inhibition of TNF production in LPS-stimulated PBMCs ("cell"); format: cell-based, human; settings: Homo sapiens, PBMC
Method: as §1, §2, §3, §4

activated p38 = activated p38 (Homo sapiens, UniProt Q16539); assay: Inhibition of phosphorylation of EGF receptor peptide ("kinase"); format: biochemical; settings: inhibition of phosphorylation of EGF receptor peptide by activated p38
Method: This assay was carried out in the presence of 10 mM MgCl2, 25 mM β-glycerophosphate, 10% glycerol and 100 mM HEPES buffer at pH 7.6. […] The stock solution was aliquotted into vials. A fixed volume of DMSO or inhibitor in DMSO (final concentration of DMSO in reaction was 5%) was introduced to each vial, mixed and incubated for 15 minutes at room temperature. EGF receptor peptide, […], a phosphoryl acceptor in p38-catalyzed kinase reaction (1), was added to each vial to a final concentration of 200 μM. The kinase reaction was initiated with ATP (100 μM) and the vials were incubated at 30° C. After 30 minutes, the reactions were quenched with equal volume of 10% trifluoroacetic acid (TFA).
The phosphorylated peptide was quantified by HPLC analysis. Separation of phosphorylated peptide from the unphosphorylated peptide was achieved on a reverse phase column (Deltapak, 5 μm, C18 100D, part no. 011795) with a binary gradient of water and acteonitrile, each containing 0.1% TFA.

activated p38, sequence (Q16539 whole entry): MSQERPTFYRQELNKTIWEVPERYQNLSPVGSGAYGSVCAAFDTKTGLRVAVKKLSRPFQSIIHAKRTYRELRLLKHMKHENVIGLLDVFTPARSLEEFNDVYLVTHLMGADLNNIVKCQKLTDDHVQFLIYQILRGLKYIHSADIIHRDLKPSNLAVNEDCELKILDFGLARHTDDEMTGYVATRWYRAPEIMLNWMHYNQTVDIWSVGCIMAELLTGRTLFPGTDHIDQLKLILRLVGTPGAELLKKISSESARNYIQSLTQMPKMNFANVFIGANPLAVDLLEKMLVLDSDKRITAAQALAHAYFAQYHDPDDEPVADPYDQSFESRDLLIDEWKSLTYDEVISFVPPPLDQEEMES

| Compound | IC50 [1] | IC50 [2] | IC50 (activated p38) |
| --- | --- | --- | --- |
| O=c1ncn2nc(Sc3ccccc3)ccc2c1-c1ccccc1Cl [Compound 7] | ≥ 0.5 µM | ≥ 0.5 µM | ≥ 1 µM |
| Cc1ccccc1-c1c(=O)ncn2nc(Sc3ccccc3)ccc12 [Compound 8] | ≥ 0.5 µM | ≥ 0.5 µM | ≥ 1 µM |
| O=c1ncn2nc(Sc3ccccc3)ccc2c1-c1ccc(Cl)c(Cl)c1 [Compound 9] | ≥ 0.5 µM | ≥ 0.5 µM | ≥ 1 µM |
| COc1ccccc1-c1c(=O)ncn2nc(Sc3ccccc3)ccc12 [Compound 11] | ≥ 0.5 µM | ≥ 0.5 µM | ≥ 1 µM |
| Cc1c(Sc2ccccc2)nn2cnc(=O)c(-c3c(Cl)cccc3Cl)c2c1C [Compound 13] | ≥ 0.5 µM | ≥ 0.5 µM | ≥ 1 µM |
| Cc1ccc(Sc2ccc3c(-c4c(Cl)cccc4Cl)c(=O)ncn3n2)cc1 [Compound 14] | 0.1 to 0.5 µM | ≥ 0.5 µM | ≥ 1 µM |
| Cc1cccc(Sc2ccc3c(-c4c(Cl)cccc4Cl)c(=O)ncn3n2)c1 [Compound 15] | 0.1 to 0.5 µM | 0.1 to 0.5 µM | ≥ 1 µM |
| O=c1ncn2nc(Sc3ccc(Cl)c(Cl)c3)ccc2c1-c1c(Cl)cccc1Cl [Compound 16] | ≥ 0.5 µM | 0.1 to 0.5 µM | 0.1 to 1 µM |
| O=c1ncn2nc(Sc3ccccc3)ccc2c1-c1c(F)cccc1F [Compound 17] | ≥ 0.5 µM | ≥ 0.5 µM | ≥ 1 µM |
| CC(C)c1ccccc1Sc1ccc2c(-c3c(Cl)cccc3Cl)c(=O)ncn2n1 [Compound 18] | ≥ 0.5 µM | ≥ 0.5 µM | ≥ 1 µM |
| Cc1ccc(Sc2ccc3c(-c4c(Cl)cccc4Cl)c(=O)ncn3n2)cc1C [Compound 19] | ≥ 0.5 µM | ≥ 0.5 µM | ≥ 1 µM |
| CCc1ccccc1Sc1ccc2c(-c3c(Cl)cccc3Cl)c(=O)ncn2n1 [Compound 20] | ≥ 0.5 µM | ≥ 0.5 µM | 0.1 to 1 µM |
| O=c1ncn2nc(Sc3cccc(F)c3)ccc2c1-c1c(Cl)cccc1Cl [Compound 21] | 0.1 to 0.5 µM | ≥ 0.5 µM | 0.1 to 1 µM |
| O=c1ncn2nc(Sc3ccccc3)ccc2c1-c1c(F)cccc1C(F)(F)F [Compound 22] | ≥ 0.5 µM | ≥ 0.5 µM | ≥ 1 µM |
| O=c1ncn2nc(Sc3cccc(Cl)c3)ccc2c1-c1c(Cl)cccc1Cl [Compound 25] | 0.1 to 0.5 µM | ≥ 0.5 µM | 0.1 to 1 µM |
| Cc1cc(Cl)ccc1Sc1ccc2c(-c3c(Cl)cccc3Cl)c(=O)ncn2n1 [Compound 28] | 0.1 to 0.5 µM | 0.1 to 0.5 µM | 0.1 to 1 µM |
| O=c1ncn2nc(Sc3ccccc3Br)ccc2c1-c1c(Cl)cccc1Cl [Compound 29] | 0.1 to 0.5 µM | 0.1 to 0.5 µM | 0.1 to 1 µM |
| CN(C)C(=O)c1ccccc1Sc1ccc2c(-c3c(Cl)cccc3Cl)c(=O)ncn2n1 [Compound 31] | ≥ 0.5 µM | ≥ 0.5 µM | ≥ 1 µM |
| O=c1ncn2nc(Sc3ccc(F)cc3[N+](=O)[O-])ccc2c1-c1c(Cl)cccc1Cl [Compound 34] | ≥ 0.5 µM | ≥ 0.5 µM | ≥ 1 µM |
| O=c1ncn2nc(Sc3ccc(F)cc3)ccc2c1-c1cc2c(cc1Cl)OCO2 [Compound 39] | ≥ 0.5 µM | ≥ 0.5 µM | 0.1 to 1 µM |
| Cc1nc(=O)c(-c2c(Cl)cccc2Cl)c2ccc(Sc3ccc(F)c(Cl)c3)nn12 [Compound 40] | 0.1 to 0.5 µM | ≥ 0.5 µM | 0.1 to 1 µM |
| Cc1cc(Sc2ccc3c(-c4c(Cl)cccc4Cl)c(=O)ncn3n2)c(Cl)cc1F [Compound 41] | ≤ 0.1 µM | ≤ 0.1 µM | ≤ 0.1 µM |
| COc1cc(Cl)c(-c2c(=O)ncn3nc(Sc4ccc(F)cc4)ccc23)cc1OC [Compound 43] | ≥ 0.5 µM | ≥ 0.5 µM | 0.1 to 1 µM |
| Cc1cc(Cl)c(-c2c(=O)ncn3nc(Sc4ccc(F)cc4)ccc23)cc1C [Compound 44] | ≥ 0.5 µM | ≥ 0.5 µM | 0.1 to 1 µM |
